# Source: PMC1968196, “Effect of anthracycline analogs on photolabelling of p-glycoprotein by [125I]iodomycin and [3H]azidopine: relation to lipophilicity and inhibition of daunorubicin transport in multidrug resistant cells” (British Journal of Cancer, 1993)
# Several values for one entry are separate records, joined by “and”; a condition that tells them apart may be missing. Equal entries are not always repeated. Where two headings read alike, the source gives them in different places.
# Columns and labels:
# P-glycoprotein [1] = assay: [125I]iodomycin photolabelling of Pgp in EHR2/DNR+ cells; assay type: binding, mice; details: iodomycin 10 nM
# From the text: (§1) Br. J. Cancer (1993), 67, 226 231 ? Macmillan Press Ltd., 1993 Effect of anthracycline analogs on photolabelling of p-glycoprotein by I'25 liodomycin and [3Hlazidopine: Relation to lipophilicity and inhibition of daunorubicin transport in multidrug resistant cells E. Frichel*, E.J.F. Demant2, M. Sehested3 & N.I. Nissen' 'Department of Medicine and Hematology, L 4042, Rigshospitalet-University Hospital, 9, Blegdamsvej, DK-2100 Copenhagen; 2Department of Biochemistry C, The Panum Institute, University of Copenhagen, DK-2200 Copenhagen; 3Department of Pathology, Sundby Hospital, DK-2300 Copenhagen, Denmark. […] We photoaffinity labelled P-glycoprotein in daunorubicin (DNR) resistant Ehrlich ascites tumour cells (EHR2/DNR + ) with a ['25I]iodinated Bolton-Hunter derivative of daunorubicin ([1251]iodomycin) and with [3H]azidopine. […] Anthracyclines are among the most valuable cytostatic agents in clinical use. Their usefulness is, however, limited by the occurrence of tumour cells with the multidrug resistance (MDR) phenotype (Beck, 1987; Bliek & Borst, 1989; Endicott & Ling, 1989; Kaye & Merry, 1985; Moscow & Cowan, 1988). MDR cells have an enhanced amount of a 150- 170 kDa plasma membrane glycoprotein, P-glycoprotein (Pgp) (Kartner et al., 1983 and 1985; Cornwell et al., 1986; Bradley et al., 1988; Beck, 1991a; Roninson, 1991), that may function as a low-specificity transport protein to facilitate the outward transport of cytotoxic agents including the anthracyclines. Thus, increased drug efflux and therefore decreased accumulation is seen in MDR cells not only to the drug for which resistance is developed but also to a wide spectrum of chemically unrelated cytostatics (Bradley et al., 1988; Fojo et al., 1985). […] The aim of this study was to examine these analogs for their ability to com- pete for ligand binding to Pgp and thus service as inhibitors for the outward drug transport system in MDR cells. Anthracycline inter-actions with Pgp were assessed using the specific photolabelling of the protein with [251I]iodomycin, a ['251]iodinated Bolton-Hunter derivative of DNR (Busche et al., 1989a) and with [3H]azidopine ([3H]AZP) which photolabels Pgp in plasma membrane vesicles from EHR2/ DNR + cells (Sehested et al., 1990) as well as in whole cells (Safa et al., 1987; Friche et al., 1990c). […] Material and methods Chemicals Duanorubicin (DNR); AdriamycinR (Doxorubicin/HCl, DOX); 4'-deoxy-4'-iododoxorubicin (DIDOX); and 4- demethoxy-DNR were kindly supplied from Farmitalia, Carlo Erba (Milan, Italy). N,N-dibenzyl-DNR was a gift from Dr Nicholas Bachur, (Baltimore, MD) and N- benzyladriamycin-14-valerate (AD 198) a gift from Professor M. Israel (Memphis, TN). Mitoxantrone was purchased from Lederle (New Jersey, USA), Aclacinomycin A from Lund- beck & Co A/S (Copenhagen, Denmark), OncovinR (Vincristine/HCl, VCR) from Eli Lilly Deutschland GMBH (Giessen, Germany), Cremophor EL from BASF Aktiengesellschaft (Ludwigshafen, Germany), and Tween 80 from the Sigma Chemical Co. (St. Louis, MO). ['251]-Bolton- Hunter reagent (2000 Ci mmol 1), [3H]AZP (42 Ci mmol- ') and non-radioactive AZP were purchased from Amersham International (Amersham, UK). All other chemicals were of analytical grade. Organic solvents were distilled prior to use. Triethylamine was distilled over ninhydrin and anhydrous methanol was stored over molecular sieve (3 A). Tumour cells Cells were either the wild-type Ehrlich ascites tumor line (EHR2) or the corresponding DNR-resistant line (EHR2/ DNR + ) (Dan0, 1971) displaying both the MDR phenotype (Sehested et al., 1990) and as recently shown, decreased Correspondence: E. Friche. Received 22 April 1992; and in revised form 21 September 1992.
# P-glycoprotein [2] = assay: [3H]azidopine photolabelling of Pgp in EHR2/DNR+ cells; assay type: binding, mice; details: [3H]AZP 0.4 µM
# From the text: as §1
# [3] = pH 7.45
# From the text: as §1
# EHR2/DNR+ [4] = details: in vivo; ref Friche et al., 1987; cited from earlier work
# EHR2/DNR+ [5] = details: in vitro clonogenic assay; ref Friche et al., 1990b; cited from earlier work
# Pgp = system: Pgp; design: method as in Safa et al. (1987); details: ref Safa et al., 1987; cited from earlier work
# EHR2/DNR+ cells = details: ref Friche et al., 1990a; cited from earlier work
# [6] = 10 µM drug (1000-fold molar excess), 30 min 37°C
# [7] = 40 µM drug (100-fold molar excess)
Structure (SMILES),Per cent inhibition of [125I]iodomycin photolabelling of Pgp (P-glycoprotein [1]; [6]),Per cent inhibition of [125I]iodomycin photolabelling of Pgp (P-glycoprotein [1]; 20 µM drug),"Per cent inhibition of [125I]iodomycin photolabelling of Pgp (P-glycoprotein [1]; 20 µM drug, listed as DNR)",Per cent inhibition of [125I]iodomycin photolabelling of Pgp (P-glycoprotein [1]; 40 µM drug),"Per cent inhibition of [125I]iodomycin photolabelling of Pgp (P-glycoprotein [1]; 40 µM drug, listed as DNR)",Per cent inhibition of [3H]AZP photolabelling of Pgp (P-glycoprotein [2]; 10 µM drug),Per cent inhibition of [3H]AZP photolabelling of Pgp (P-glycoprotein [2]; 20 µM drug),Per cent inhibition of [3H]AZP photolabelling of Pgp (P-glycoprotein [2]; [7]),"Lipid solubility (O/W), octanol/water partition coefficient [3]",Resistance of EHR2/DNR+ subline (EHR2/DNR+ [4]),Resistance of EHR2/DNR+ subline (EHR2/DNR+ [5]),"Per cent inhibition of [125I]iodomycin photolabelling of Pgp (P-glycoprotein [1]; 10 µM drug (1000-fold molar excess), 30 min 37°C, listed as DOX)","Per cent inhibition of [125I]iodomycin photolabelling of Pgp (P-glycoprotein [1]; 40 µM drug, listed as DOX)","Per cent inhibition of [3H]AZP photolabelling of Pgp (P-glycoprotein [2]; 40 µM drug (100-fold molar excess), listed as DOX)",Inhibition of [3H]AZP labelling of Pgp (Pgp),Effect on accumulation of DNR (EHR2/DNR+ cells)
COc1cccc2c1C(=O)c1c(O)c3c(c(O)c1C2=O)C[C@@](O)(C(C)=O)C[C@@H]3O[C@H]1C[C@H](N)[C@H](O)[C@H](C)O1 [Daunorubicin],52.5%,82.7%,83%,90.6%,90%,8.0%,33.2%,50.0%,7.85,at least 16 fold,about 80 fold,,,,,
COc1cccc2c1C(=O)c1c(O)c3c(c(O)c1C2=O)C[C@@](O)(C(=O)CO)C[C@@H]3O[C@H]1C[C@H](N)[C@H](O)[C@H](C)O1 [Doxorubicin],0%,0%,,16.8%,,0%,10.5%,11.0%,1.22,,,did not cause significant inhibition,17% and 10-17%,10-17%,19%,does not increase accumulation of DNR
